Test results as given in patent publication US20080220056A1, “Treatment for liver disease” (UNIVERSITY OF SOUTHAMPTON, priority 2002, published 2008).

Tests used:
Type in all cases: cell-based
[1] = tested on: NF-kB DNA binding activity; assay: Electromobility shift assay for NF-kB DNA binding activity in rat hepatic stellate cells; settings: activated rat HSC
Protocol: Crude high salt extractable nuclear protein was prepared from activated hepatic stellate cells for analysis of NF-kB DNA binding activity essentially as described (Elsharkawy et al., supra), aliquoted and stored at −80° C. until required. Extract protein concentrations were determined using the Lowry colorimetric assay (Lowry et al., supra) with bovine serum albumin as standard. A double stranded 5′ end labeled radiolabeled oligonucleotide [sense 5′-[…]-[…] (SEQ ID NO:1)] containing a consensus NF-kB DNA binding site as underlined (Baldwin et al., Annu. Rev. Immunol., (1996) 14:649-681) was used to determine NFkB DNA binding activity in crude nuclear extracts (Elsharkawy et al., supra).
The effect of gliotoxin on NF-kB activity in hepatic stellate cells was investigated. Culture-activated (14-day) rat hepatic stellate cells were incubated in the presence or absence of 10 ng/mL TNF-α fifteen minutes after addition of:
After a further 30 minutes, and before any significant morphologic changes, cells were washed with ice-cooled PBS, nuclear extracts prepared, and NF-kB DNA binding activity assessed by gel shift analysis. […] Each lane contained […] of protein and the results were the same for at least three separate experiments.

[2] = tested on: rat hepatic stellate cells; assay: Morphology and detachment of culture-activated rat hepatic stellate cells (light microscopy)
Source text: Rat hepatic stellate cells (HSCs) were isolated by pronase/collagenase perfusion and purified by isopycnic density centrifugation in Opti-prep™ (Nycomed, Amersham, England) and elutriation essentially as previously described (Bahr et al., Hepatology (1999) 29:839-848). Human hepatic stellate cells were isolated from discarded resected liver via a similar protocol (Trim et al., J. Biol. Chem., (2000) 275:6657-6663). The use of human liver tissue for scientific investigation was approved by the UK South and West Local Research Ethics Committee and was subject to patient consent.
It has been shown recently that liver myofibroblasts may contribute to liver fibrogenesis and that liver myofibroblasts may have the potential to contaminate passaged hepatic stellate cell cultures (Knittel et al., Gastronenterology, (1999) 117:1205-1221). In this study, only primary cultures of hepatic stellate cells were used, which were desmin and glial fibrillary acid protein positive (markers shown to be expressed in hepatic stellate cells, but not liver myofibroblasts—Knittel et al., supra).
Cells were treated with gliotoxin dissolved in DMSO vehicle (added to medium from a 2000-fold molar concentrated stock). Control cells received DMSO vehicle only (i.e., 0.05% vol/vol). All other additions to culture medium were made from concentrated stocks dissolved in DMSO or by direct addition to culture medium. Protein contents of wells were determined using the Lowry assay (Lowry et al., J. Biol. Chem., (1951)193: 265-275).
Culture activated rat (14 day) and human (24 day) hepatic stellate cells were treated with DMSO solvent control or 1.5 μMol/L gliotoxin. […] Hepatic stellate cells changed from a flattened fibroblastic phenotype with distinct cell-cell interfaces to a substratum detached, rounded, and blebbed morphology.

[3] = tested on: human hepatic stellate cells; assay: Hepatic stellate cell apoptosis by acridine orange staining and counting (cycloheximide or serum deprivation), human cells; settings: human hepatic stellate cells
Protocol: Human hepatic stellate cells were extracted from the margins of normal human liver resected for colonic metastatic disease as previously described (Iredale et al., Clin. Sci., (1995) 89: 75-81). Rat hepatic stellate cells were extracted from normal rat liver by Pronase and collagenase digestion and purified by centrifugal elutriation as described (Arthur et al., J. Clin. Invest., (1989) 84:1076-1085). Extracted hepatic stellate cells were cultured on plastic until they were activated to a myofibroblastic phenotype after 7 to 10 days. Human and rat hepatic stellate cells were used for experiments after activation in primary culture or before fourth passage. Cells were cultured in Dulbecco's modified Eagle's medium in the presence of 16% fetal calf serum and antibiotics.
Apoptosis of hepatic stellate cells was induced by absolute serum deprivation, cycloheximide treatment (Issa et al., Gut (2001) 48: S48-S57), or exposure to nerve growth factor as previously described (Trim et al., Am. J. Pathol., (2000) 156, 1235-1243). Hepatic stellate cells were cultured in 24-well tissue culture plates. […] Following a 4 hour incubation at 37° C., nuclear morphology was assessed by adding acridine orange to each well (final concentration 1 μg/ml) and observing the cells under blue fluorescence. The total number of apoptotic bodies was counted, and any apoptotic bodies floating in the supernatant were included by racking up the objective lens. The total number of cells per field was counted, and an apoptotic index was calculated. Each condition was performed in duplicate, and three high power fields were counted for each well. […] To examine for autocrine effects, hepatic stellate cells were incubated for 18 hours with azide-free polyclonal neutralizing antibodies to TIMP-1 and a nonimmune IgG control (Santa Cruz Biotechnology, Inc., Santa Cruz, Calif.), and responses were assessed by acridine orange staining and counting.
Apoptosis was assessed by acridine orange staining. […]

[4] = tested on: hepatic stellate cells; assay: Nerve growth factor induced apoptosis of hepatic stellate cells; settings: NGF 100 ng/ml, serum-free; TIMP-1 142.5 ng/ml
Protocol: Apoptosis of hepatic stellate cells was induced by absolute serum deprivation, cycloheximide treatment (Issa et al., Gut (2001) 48: S48-S57), or exposure to nerve growth factor as previously described (Trim et al., Am. J. Pathol., (2000) 156, 1235-1243). Hepatic stellate cells were cultured in 24-well tissue culture plates. Rat and human hepatic stellate cells were exposed to proapoptotic stimuli with and without recombinant TIMP-1 (Biogenesis, Poole, UK) and other manipulations as detailed below. Following a 4 hour incubation at 37° C., nuclear morphology was assessed by adding acridine orange to each well (final concentration 1 μg/ml) and observing the cells under blue fluorescence. The total number of apoptotic bodies was counted, and any apoptotic bodies floating in the supernatant were included by racking up the objective lens. The total number of cells per field was counted, and an apoptotic index was calculated. Each condition was performed in duplicate, and three high power fields were counted for each well. […] To examine for autocrine effects, hepatic stellate cells were incubated for 18 hours with azide-free polyclonal neutralizing antibodies to TIMP-1 and a nonimmune IgG control (Santa Cruz Biotechnology, Inc., Santa Cruz, Calif.), and responses were assessed by acridine orange staining and counting. […]

Row | Compound | TNF-α-inducible NF-kB DNA binding activity ([1]; 10 ng/mL TNF-α, same concentrations as for constitutive activity) | constitutive NF-kB DNA binding activity ([1]; gliotoxin 1.5 μmol/L, N-acetyl cysteine 5 mM, calpain inhibitor 1 50 μM, dexamethasone 0.5 μm, pentoxyfilline 3.6 mM) | detachment from culture dish substratum ([2]; 1.5 μMol/L gliotoxin, within four hours) | morphologic alterations ([2]; culture activated (14 day) rat HSC, 1.5 μmol/L) | apoptosis of human HSC (cycloheximide 4 h or serum deprivation 18 h) [3] | apoptosis induced by exposure to NGF [4]
1 | CN1C(=O)[C@]23CC4=CC=C[C@H](O)[C@H]4N2C(=O)[C@@]1(CO)SS3 [gliotoxin] | inhibits TNF-α-inducible NF-kB DNA binding activity | does not have a marked inhibitory effect | a majority of the hepatic stellate cells had detached | striking morphologic alterations within one hour |  | 
2 | TIMP-1: recombinant tissue inhibitor of matrix metalloproteases 1 (Biogenesis) |  |  |  |  | identical antiapoptotic effects | significantly inhibited
